Measurements reported in PMC5218480 (PLoS ONE, 2017).

System: MV-4-11 cells
Assay: Gene expression microarray analysis (Affymetrix PrimeView) and GSEA
Assay type: cell-based, human
Details: ProbeSet 11733176_x_at; LIST B

Nc1ccc(-c2cccs2)cc1NC(=O)c1ccc2c(c1)cc(C1CC1)n2CCN1CCOCC1 [ACY-1035]
RFU, ZNF507: 24.05 RFU
